Results published in patent US20060211684A1, “Use of alpha-2 adrenergic receptor agonists” (Perlegen Sciences, Inc., priority 2005, published 2006).
Where two headings read alike, the source gives them in different places.

How the values were obtained:
[1] = system: transverse aortic constricted α2C−/−mice
Experimental: This example tests whether treatment of α2C−/−knockout transgenic mice with the partial α2A agonist, clonidine, improves cardiac function and reduces ventricular hypertrophy after left ventricular pressure overload. In other words, the example tests whether clonidine-mediated activation of α2A-receptors compensates for the loss of functional α2C. The mice used in this experiment are described in more detail in Brede et al., Circulation 106, 2491-2496 (2002). […] Mice were treated with 200 μg/kg/day clonidine or vehicle for four weeks. Three mice were treated with clonidine and three with vehicle in the initial experiment.

[2] = cited from earlier work
[3] = after ingestion; cited from earlier work
[4] = cited from earlier work; remark: listed apart in the source
[5] = initial experiment, 200 μg/kg/day for four weeks, three mice clonidine, three vehicle, FIG. 1
[6] = second experiment, 200 μg/kg/day for 4 weeks via osmotic minipumps, n=5 clonidine, n=6 vehicle

Compound: Clc1cccc(Cl)c1NC1=NCCN1 [clonidine, N-(2,6-dichlorophenyl)-4,5-dihydro-1 H-imidazol-2-amine]
- hypertrophy ([1]; FIGS. 1 and 2): prevents and reduces
- left ventricular systolic pressures ([1]; FIGS. 1 and 2): slightly reduced
- ventricular contractility ([1]; FIGS. 1 and 2): maintained
- contractility of the heart [1, 5]: did not effect
- left ventricular systolic pressure [1, 5]: reduced
- ventricular hypertrophy [1, 5]: reduced
- contractility of the heart [1, 6]: did not effect
- left ventricular systolic pressure [1, 6]: reduced
- ventricular hypertrophy [1, 6]: reduced
- time to peak plasma concentrations ([2]; after a single oral dose): 3 to 5 h
- CNS penetration ([2]; because of lipid solubility): excellent
- time to steady state levels ([2]; dermal application): several days
- absorption from the gastrointestinal tract ([2]; in vivo): rapidly absorbed
- elimination ([2]; in vivo): excreted unchanged in the urine and metabolized by the liver
- onset of antihypertensive effects [3]: 30 to 60 min
- side effects ([4]; therapeutic doses typically used (0.2-0.9 mg/day)): dryness of the mouth, dizziness, sedation, and constipation
- toxic effects ([4]; toxic doses, children and adults): serious cardiopulmonary instability and central nervous system depression
